{"source": "patent US8916604B2", "about": "“Compositions and methods for epigenetic modification of nucleic acid sequences” (Rutgers, The State University of New Jersey, priority 2011, dated 2014)", "key": {"[1]": {"tested_on": "Nrf2", "assay": "qPCR mRNA expression in HepG2-C8 cells", "type": "cell-based, human", "conditions": "25 μM, 6 h, vs 0.1% DMSO", "experimental": "(§1) The cells were treated similarly to the NITS and ARE-luciferase assays described above using 10% FBS medium. The incubation of the compounds with the cells was terminated 6 h later. The mRNA expression was evaluated utilizing a quantitative real-time polymerase chain reaction (qPCR). An RNeasy kit from Qiagen was used for RNA extraction (Valencia, Calif.). The total RNA was reverse-transcribed to cDNA by TaqMan Reverse Transcription Reagents (Applied Biosystems Inc, Foster City, Calif.). SYBR Green (Applied Biosystems Inc, Foster City, Calif.) fluorescence was used to measure the product of qPCR. Glyceraldehyde 3-phosphate dehydrogenase (GAPDH) was used as the housekeeping gene, and the Applied Biosystems 7900HT Fast Real-Time PCR System (Applied Biosystems Inc, Foster City, Calif.) was used as described previously (Saw et al., Biochem Pharmacol 2010; 79: 421-430) to detect quantitatively the induction of mRNA of Nrf2, phase II DME GSTm2, NAD (P)H dehydrogenase, quinone 1 (NQO1), UGT family, polypeptide A1 (UGT1A1) and antioxidant enzymes HO-1, superoxide dismutase 1 (SOD1). The primer pairs were designed using the Primer Quest Oligo Design and Analysis Tool by Integrated DNA Technologies Inc. (Coralville, Iowa, USA) and the sequences are listed in Table 4. At least four wells of each treatment were performed and duplicate samples were carried out for each treatment."}, "[2]": {"tested_on": "HO-1", "assay": "qPCR mRNA expression in HepG2-C8 cells", "type": "cell-based, human", "conditions": "25 μM, 6 h, vs 0.1% DMSO", "experimental": "as §1"}, "[3]": {"tested_on": "DNMT1", "assay": "Western blot in TRAMP C1 cells", "type": "cell-based, mouse", "experimental": "(§2) The DIM used in the study contains approximately 98% of DIM purchased from Sigma-Aldrich t St. Louis, Mo., USA), TRAMP C1 cells (provided by Dr. Barbara Foster, Department of Pharmacology and Therapeutics, Roswell Park Cancer institute, Buffalo. NY), originally derived from TRAMP prostate tumor, were cultured in Dulbecco's Modified Eagle's Medium (Invitrogen Corp., Carlsbad, Calif. U.S.A.) supplemented with 10% (V/V) fetal bovine serum (FBS) (Invitrogen Corp., Grand Island, N.Y., U.S.A.), penicillin 100 U/ml, and streptomycin 100 μg/ml (Invitrogen Corp., Grand Island, N.Y., U.S.A.), Cells were maintained in a humidified incubator with 5% CO2 at 37° C. Cells were seeded in 10 cm plates for 24 h and then treated with 0.1% DMSO (control) or different concentrations of DIM in 1% FBS containing medium for 5 days. The medium was changed every 2 days (20), The TRAMP C1 cells or dorso-lateral prostate tissues collected from treated and control groups were pooled and homogenized with RIPA buffer (Cell Signaling Technology, Danvers, Mass., U.S.A.) and 10 μg/ml protease inhibitor cocktail (EMD Chemicals, Philadelphia, Pa., U.S.A.). Protein (20 μg) was loaded onto 4-15% SDS-PAGE (Bio-Rad Laboratories, Hercules, Calif., U.S.A.). After separation by SDS-PAGE, the protein was transferred onto nitrocellulose membrane (Millipore Corp., Billerica, Mass., U.S.A.), and then was blocked in 5% bovine serum albumin (BSA) (Fisher Scientific, Fair Law, J. U.S.A.) in tris buffer saline tween-20 (TBST) solution for 1 h. Membranes were probed using the different mono- or polyclonal-antibodies (1:1000) overnight at 4″C. Blots were washed with TBST solution for 15 min 4 times and incubated with the respective secondary antibodies for 1 hr. After washing min 4 times with TBST solution, the immunoreactive bands were determined by adding SuperSignal West Femto mix (1:1 mix of stable peroxide buffer and luminol/enhancer solution (Thermo Scientific, Rockford, Ill., U.S.A.) to detect immunoreactive bands. The bands were visualized and quantified by BioRad ChemiDoc XRS system (Hercules, Calif., U.S.A.). The primary antibodies used were β-actin, Nrf2, NQO1 (Santa Cruz Biotechnology, Santa Cruz, Calif., U.S.A.), HDAC1, HDAC2, HDAC3, HDAC4 (Cell Signaling Technology Inc., Danvers Mass., U.S.A.), HDAC8 (Proteintech Group Inc., Chicago, Ill., U.S.A.) and DNMT1, DNMT3a, DNMT3b (Imgenex, San Diego, Calif., U.S.A.). The secondary antibodies used were goat polyclonal IgG for β-actin and NQO1, rabbit polyclonal IgG for Nrf2, HDAC1, HDAC2, HDAC3, HDAC4 and HDAC8, and mouse polyclonal IgG for DNMT1, DNMT3a, DNMT3b (Santa Cruz Biotechnology, Santa Cruz, Calif., U.S.A.),"}, "[4]": {"tested_on": "DNMT3b", "assay": "Western blot in TRAMP C1 cells", "type": "cell-based, mouse", "experimental": "as §2"}, "[5]": {"tested_on": "HDAC2", "assay": "Western blot in TRAMP C1 cells", "type": "cell-based, mouse", "experimental": "as §2"}, "[6]": {"tested_on": "HDAC3", "assay": "Western blot in TRAMP C1 cells", "type": "cell-based, mouse", "experimental": "as §2"}, "[7]": {"tested_on": "Nrf2", "assay": "Western blot in TRAMP C1 cells", "type": "cell-based, mouse", "experimental": "as §2"}, "[8]": {"tested_on": "NQO1", "assay": "Western blot in TRAMP C1 cells", "type": "cell-based, mouse", "experimental": "as §2"}, "[9]": {"tested_on": "apoptotic cells in the dorso-lateral prostates", "assay": "IHC staining of TRAMP prostate tissue, apoptosis (TUNEL)", "type": "in vivo, mouse", "conditions": "D-G1 and D-G2 vs control, p<0.001", "experimental": "Sections (4 μm) were cut from the paraffin embedded prostate tissue and mounted on glass slides. The slides Were deparafinized in xylene and antigen unmasking was performed by applying proteinase K digestion directly on the slides for 15 min. Endogenous peroxidase was blocked by incubating in 3% […] for 5 min, and ApopTag Plus Peroxidase In Situ Apoptosis Detection Kit (Millipore, Temecula, Calif., U.S.A.) was used to detect apoptotic cells. For detection of proliferative cells, monoclonal mouse anti-proliferating cell nuclear antigen (PCNA) antibody (Clone PC10, 1:50, Dako North America, Carpinteria, Calif., U.S.A.) was used (12). The staining was performed following as the manufacturer's protocols. Anti-5-methylcytosine (5-MC) mouse monoclone antibody (Clone 162 33 D3, 1:50, EMD Chemicals, Philadelphia, Pa., U.S.A.) was used to detect genome-wide methylated DNA. […] Quantitation of IHC staining was done using the Aperio ScanScope® GL system according to the manufactures protocol (Aperio Technologies Inc., Vista, Calif., U.S.A.). […] The Aperio ImageScopoe software (v 10.1.3.2028) allowed the unbiased quantification and quantitative analysis of the IHC staining of biomarkers of prostate tumor samples obtained from untreated control versus the treated TRAMP mice."}}}
{"smiles": "c1ccc2c(Cc3c[nH]c4ccccc34)c[nH]c2c1", "note": "[DIM, 3,3′-diindolylmethane]", "values": [{"measurement": "Nrf2 mRNA induction over control", "setting": "[1]", "result": "~3", "unit": "fold"}, {"measurement": "HO-1 mRNA induction over control", "setting": "[2]", "result": "~3", "unit": "fold"}, {"measurement": "DNMT1 protein level", "setting": "[3]", "result": "suppressed"}, {"measurement": "DNMT3b protein level", "setting": "[4]", "result": "suppressed"}, {"measurement": "HDAC2 protein expression", "setting": "[5]", "result": "suppress"}, {"measurement": "HDAC3 protein expression", "setting": "[6]", "result": "suppress"}, {"measurement": "Nrf2 protein levels", "setting": "[7]", "result": "significantly induced"}, {"measurement": "NQO1 protein levels", "setting": "[8]", "result": "significantly induced"}, {"measurement": "percent of apoptotic cells", "setting": "[9]", "result": "significantly higher"}]}
